Measured values as given in ChEMBL document CHEMBL3507680, “University of Dundee, Gates Library screen for HepG2 cell viability”.

Assay: Human HepG2 cell viability assay in 384 well format
Assay type: toxicity, cell-based
Parameters: dose 125 nL, time 70.5 hour; cytotoxicity at 70.5 h: concentration not given beside the values
Details: HepG2 cells, read-out: Inhibition

Structure (SMILES)	cytotoxicity at 70.5 h [%]
CCOCC(O)CN1CCN(C(=O)c2ccc(N(C)C)nc2)CC1 (stereo not given)	1.39
CC(O)CN1CCN(C(=O)c2ccnc(N(C)C)c2)CC1 (stereo not given)	14.1
CCCc1nc(C)c(C(=O)NS(=O)(=O)c2cccnc2)s1	-0.303
CN(CCn1cnnc1)C(=O)c1ccnc(OC2CCC2)c1	16.2
COCC(=O)NCc1cccc(OCCN(C)C2CCOCC2)c1	-0.957
Cc1cccc(C(=O)NCCNCC2CNc3ccnn3C2)c1 (stereo not given)	-1.43
CCCc1nc(CN(C)CC2CCN(CCO)CC2)no1	14.7
CC(=O)N1CCC(c2nc(Cc3ccccc3)no2)C1 (stereo not given)	-3.88
Cc1nc(C)n(CC2CCCN2CC(=O)N(C)Cc2ccc(C)o2)n1 (stereo not given)	-4.56
CN(CCOc1cccc(CNS(C)(=O)=O)c1)C1CCOCC1	1.39
CN(Cc1cnn(C)c1)C(=O)c1ccnc(OC2CCC2)c1	15.8
CCc1noc(CN(C)C(=O)c2ccnc(OC3CCC3)c2)n1	-0.589
CC(=O)N1CCCN(Cc2nnc(C(C)(C)C)o2)CC1	5.23
Cn1nc(C(=O)N(CC(F)(F)F)c2cccc(Cl)c2)ccc1=O	9.92
Cc1cccc2c(CCNC(=O)NCC[S+](C)[O-])c[nH]c12 (stereo not given)	0.892
Cc1nc(C(=O)N(C)C2CC(=O)N(Cc3ccccc3)C2=O)cs1 (stereo not given)	-5.65
CCCc1nc(CNc2cc(CS(C)(=O)=O)ccc2Cl)no1	-0.135
CCN(Cc1cnn(C)c1)S(=O)(=O)N1CCCC1c1ccco1 (stereo not given)	3.59
COCC(C)(C#N)NC(=O)COc1ccccc1 (stereo not given)	-0.947
COC(=O)c1cc(C(=O)N2CCc3ccc(F)cc3C2C)ccn1 (stereo not given)	-0.61
CCC(CO)NC(=O)Cc1ccc(NC(=O)CC2=CCCCC2)cc1 (stereo not given)	-3.34
CN1CC(Nc2ccc(Br)cc2C#N)CCC1=O (stereo not given)	-0.708
COc1ccnc(N(C)Cc2ccccc2O)n1	1.42
CCCN(CC1CC1)S(=O)(=O)c1ccc(NC(C)=O)cc1	-1.65

Structure (SMILES)	cytotoxicity at 70.5 h [%]
CN(CCN1CCOCC1)S(=O)(=O)CC1CCCC1	-0.906
CN(C(=O)c1ccc[nH]1)C1CC(=O)N(Cc2ccccc2)C1=O (stereo not given)	-4.14
Cc1cc(C)n(CC2CCCCN2C(=O)c2sccc2C#N)n1 (stereo not given)	1.28
Cc1ccc(C2CCCN2S(=O)(=O)N(C)Cc2cnn(C)c2)o1 (stereo not given)	13.3
COc1ccc(CN2CCN(C(C)=O)CC2)cc1SC(F)(F)F	0.0728
N#Cc1c(N2CCCN(C3CCOCC3)CC2)nc2ccccn12	-2.26
CC(=O)N1CCC(Nc2ccc(Br)cc2C#N)C1 (stereo not given)	4.92
CN(c1ncnc2c1CCC2)C1CCCN(c2cccnn2)C1 (stereo not given)	1.68
Cc1ccc(F)cc1NC(=O)CCn1cncn1	-8.38
Cc1cc(F)ccc1NCC(=O)NCC(F)(F)F	0.946
CC(=O)Nc1nc(C(=O)NCCOc2ccccc2F)cs1	-15.5
CCN(CC)Cc1ccccc1NC(=O)N(C)Cc1ccc(OC)cc1	-15.6
Cn1ccnc1COc1ccc(CSc2nnnn2C)cc1	-11.4
Cc1cc(C(=O)N2CCC(N3CCNC3=O)CC2)nn1C(C)(C)C	-16.5
Cc1cnn(CC2CC2)c1NC(=O)c1cccnc1O	14.4
NC(=O)NC(=O)CCN1C(=O)CC(Cc2ccc(F)cc2)C1=O (stereo not given)	-13.2
CCC(NC(=O)CS(=O)(=O)C1CCCC1)c1cc(F)ccc1F (stereo not given)	-7.05
CC(Cn1cncn1)NC(=O)Nc1ccc(F)cc1OCC1CC1 (stereo not given)	-9.35
CC(CNC(=O)c1cnccn1)Oc1cccc(Br)c1 (stereo not given)	12.9
CNC(=O)c1ccc(OC)c(NCc2noc(-c3ccsc3)n2)c1	-11.3
COCCn1cc(NCc2cccc3cn[nH]c23)cn1	-5.47
COc1ccc(C(N)=O)cc1NCc1noc(-c2ccsc2)n1	-10.8
CN(c1ncnc2sccc12)C1CCCN(c2cccnn2)C1 (stereo not given)	-13.9
CN(C(=O)CCc1ccsc1)S(C)(=O)=O	6.34

Structure (SMILES)	cytotoxicity at 70.5 h [%]
Cc1ccc(OC(C)CNC(=O)c2c[nH]nn2)cc1 (stereo not given)	-7.76
O=C(c1cnccn1)N1CCN(c2ccnc3ccsc23)CC1	-13.2
Cc1noc(CCNS(=O)(=O)N2CCCC2c2ccco2)n1 (stereo not given)	-8.16
Cc1cccc(-c2nnc(C(C)NCCn3cc(C)cn3)o2)c1 (stereo not given)	-7.5
CC(C)c1nc2n(n1)CC(NCCc1cccs1)CC2 (stereo not given)	-5.42
CNS(=O)(=O)c1cccc(CNC(=O)c2cnn(C)c2C)c1	-11.8
Cc1noc(CS(=O)(=O)C/C=C/c2ccccc2)n1	-19.1
CC(CCNC(=O)NCCc1ccc(S(N)(=O)=O)cc1)c1ccccc1 (stereo not given)	-8.25
CC(CCNC(=O)NCCNc1cnccn1)c1ccccc1 (stereo not given)	-13.6
CS(=O)(=O)NC1CCN(C(=O)CCn2cccn2)CC1	-9.56
Cc1cc(SC(C)(C)C)ccc1NCC(=O)NC(N)=O	-9.41
NC(=O)CCN(C(=O)c1cccc2c1OCO2)c1ccccc1	-14
CCc1ccc(C(=O)O)cc1S(=O)(=O)N(C)c1cccc(C#N)c1	-6.98
Cc1ccc(C(=O)O)cc1S(=O)(=O)N(C)c1cccc(C#N)c1	-7.91
CC(Cn1cccn1)C(=O)N1CCC(Nc2cccnn2)CC1 (stereo not given)	-10
CCc1ccc(C(=O)O)cc1S(=O)(=O)N(C)c1cccc(C)c1	-7.54
Cc1c(I)cccc1C(=O)NCc1ncc[nH]1	-0.0896
Cc1nn(CC(=O)Nc2cccc(F)c2)c(N)c1C#N	-5.02
Cc1ccc(C)c(NC(=O)Cn2nc(C)c(C#N)c2N)c1	-10.2
CC(CC#N)N(C)Cc1ccccc1F (stereo not given)	-9.07
Cc1oc(CN(C)C(=O)c2ccc(C(F)(F)F)cc2)cc1C(=O)O	-6.23
Cc1cc(CN(Cc2ccccc2)C(C)CN2CCOCC2)no1 (stereo not given)	-5.58
CNC(=O)c1cccc(CNC(C)c2cc(Cl)ccc2OC)c1 (stereo not given)	-2.03
Fc1ccc(NCc2ncc[nH]2)cc1Br	-7.28

Structure (SMILES)	cytotoxicity at 70.5 h [%]
CNC(=O)C(C)(C)CNC(=O)Nc1cc(C)ccn1	-7.88
CC(C)c1nc2n(n1)CC(NCC(=O)N(C)Cc1cccs1)CC2 (stereo not given)	-13.3
CC(=O)OCC1CCCCN1C(=O)c1ccc(Cn2ccnc2)o1 (stereo not given)	22.8
Cn1cc(C(C)(O)CNC(=O)c2ccc(Br)s2)cn1 (stereo not given)	48.4
N#Cc1cccc(OCC(=O)N(Cc2ccncc2)C2CC2)c1	-10.3
CCS(=O)(=O)N1CCN(C(C)c2ccccc2OC)CC1 (stereo not given)	-10.2
CC(=O)N1CCCc2cc(NC(=O)NCCc3cnn(C)c3)ccc21	-2.87
Cc1ccccc1C(C)(C)CNC(=O)CN(C)c1cnccn1	-0.621
CCOC1CCCN(C(=O)Nc2cnn(CC(F)F)c2)C1 (stereo not given)	-9.21
c1nc(N2CCN(Cc3nnnn3C3CC3)CC2)c2sccc2n1	2.44
Cc1nsc(N2CCc3sccc3C2)n1	-1.49
OCC1CN(Cc2nc(C(F)(F)F)cs2)c2ccccc2O1 (stereo not given)	-9.55
Cc1nc(CN2CC(CO)Oc3ccccc32)sc1C (stereo not given)	-3.25
CC(C)C1CN(C(=O)Nc2cnn(CC(F)F)c2)CCS1 (stereo not given)	5.93
CN(C)S(=O)(=O)c1ccc(CN2CCC(c3ccccc3)C2)o1 (stereo not given)	4.6
Cc1cccc(C(C)(C)CNC(=O)CN(C)c2cnccn2)c1	-2.49
O=C(Cc1ccon1)NC1CCCN(c2ccccc2F)C1=O (stereo not given)	3.76
NCc1ccnc(Oc2ccccc2)c1	-8.2
Cc1noc(C)c1CCc1nc(C2CCOC2)no1 (stereo not given)	-11.1
CN1CC(C(=O)NCCc2ccc3c(c2)OCO3)CC1=O (stereo not given)	-8.14
NC(=O)NC(CC(=O)N1CCc2sccc2C1)c1ccccc1F (stereo not given)	-17.5
Cn1ncc2c1CCCC2NCc1cccnc1 (stereo not given)	-18.9
CC(c1nnc(-c2ccccc2)o1)N1CCC(Nc2ccccc2)CC1 (stereo not given)	8.58
O=C(CNc1ccc(OCC2CCOCC2)cc1)NCc1ccco1	-20.8

Structure (SMILES)	cytotoxicity at 70.5 h [%]
CSc1ccc(OCCN2CCNC(=O)CC2)cc1	-7.88
COCCOc1ncccc1NCc1nc2ccccc2n1C	-15.1
CC(C)(C)Oc1ccc(NCC(=O)NCc2ccco2)cc1	-18.5
Cc1noc(CCCc2nc(C3CCOC3)no2)n1 (stereo not given)	-18.7
COc1ccccc1CN(Cc1nc(Cc2ccccc2)no1)C1CC1	-10.7
COCc1nn(Cc2ccc(Cl)s2)c(=O)o1	-13.7
CC(C)c1nc(C2CCCN2CCNS(C)(=O)=O)no1 (stereo not given)	-19.2
CC(NCC(=O)N1CCc2sccc2C1)c1ccccc1F (stereo not given)	-15.8
O=C1C(N2CCOCC2)CCCN1Cc1cccc(C(F)(F)F)c1 (stereo not given)	-17.4
O=C1C(N2CC[C@@H](O)C2)CCCN1Cc1cccc(C(F)(F)F)c1 (stereo not given in full)	-18.9
NCc1ccnc(Oc2ccc(F)cc2)c1	-17
CC(=O)N1CCCN(C(=O)NCCCNS(C)(=O)=O)CC1	9.32
CC(=O)N1CCN(C(=O)NCCCN(C(C)C)S(C)(=O)=O)CC1	-8.44
Cc1cnn(C2CN(Cc3noc(C4CC4)n3)C2)c1	-4.77
CSCCC(NC(N)=O)C(=O)N1CCC(Cc2ccccc2)CC1 (stereo not given)	-3.12
COc1cccc(N2CCC(CNc3cc(C)nc4ncnn34)C2)c1 (stereo not given)	-1.68
CC(NC(=O)C1(NC(=O)c2ccc3[nH]ncc3c2)CCCC1)C1CC1 (stereo not given)	-5.24
N#Cc1cccc(S(=O)(=O)NC(=O)CCOCC(F)(F)F)c1	-3.71
COc1c(C(=O)N2CCC(CSc3ccccc3)C2)c(C)nn1C (stereo not given)	1.84
C[S+]([O-])CCNC(=O)Nc1cc(F)ccc1-n1cccn1 (stereo not given)	15.9
CS(=O)(=O)N1CCC(Nc2ccnc3ccc(Cl)cc23)CC1	-3.71
CSc1ccc(CNC2CCCc3c2cnn3C)cc1 (stereo not given)	-8.39
CC(C)(C)c1n[nH]cc1CNC1CCC(OCC(F)(F)F)CC1 (stereo not given)	-11.2
CN(CCc1ccccn1)C(=O)c1cccs1	-2.46
